Holding throughout (type): biochemical
One assay deals with T1, human cathepsin G (HCG) (Homo sapiens, UniProt P08311).
T1 construct: purchased Cosmo Bio Co. Ltd., Tokyo, Japan
T1 sequence (P08311 21-244 limits assumed): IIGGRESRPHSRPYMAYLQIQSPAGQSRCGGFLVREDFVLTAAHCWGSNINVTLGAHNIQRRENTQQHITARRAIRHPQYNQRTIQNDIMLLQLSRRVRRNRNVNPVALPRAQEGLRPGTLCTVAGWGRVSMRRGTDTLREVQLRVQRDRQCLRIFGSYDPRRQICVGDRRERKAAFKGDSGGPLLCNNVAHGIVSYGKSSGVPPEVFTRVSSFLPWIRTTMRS
Put plainly: Test 3: Measurement of inhibitory activity against HCG. To be noted: MeO-Suc-Ala-Ala-Pro-Phe-pNA substrate, pH 7.5, same procedure as Test 1. The protocol:
(§1) In order to investigate the serine protease inhibiting activity of the 4H-3,1-benzoxazin-4-one derivatives according to the present invention, human leukocyte elastase (HLE), bovine α-chymotrypsin (CYT), and human cathepsin G (HCG) were used in accordance with the following methods.
(§2) Note that the 4H-3,1-benzoxazin-4-one derivative of the present invention was dissolved in dimethylsulfoxide (DMSO) to adjust to the concentration to 1 mg/ml. This solution was serially diluted with DMSO, and twice the volume of measurement buffer was added to these DMSO solutions to provide the inhibitor solution. Test 1: Measurement of inhibitory activity against HLE
(§3) The enzyme solution, the substrate solution, and the inhibitor solution were pre-incubated at 37° C. for 10 minutes. The enzyme solution (140 μl) and the inhibitor solution (30 μl) were mixed in a well of a 96-well microtiter plate (Nunc Co. Ltd., Roskilde, Denmark), and the substrate solutions (30 μl) were added 10 minutes after the mixing, thereby starting the enzyme reaction. Hydrolysis of the substrate was monitored by the measurement of absorbance at 405 nm using a micro plate photometer (Corona Co. Ltd, Tokyo, Japan). The inhibitor concentration at which the activity of HLE was inhibited by 50% (IC50) was calculated from the substrate hydrolysis rate in the steady state.
Test 3: Measurement of inhibitory activity against HCG.
0.2M tris-hydrochloride buffer (pH=7.5)
HCG (Cosmo Bio Co. Ltd., Tokyo, Japan) was adjusted to a concentration of 190 nM with the measurement buffer. This solution was used as the enzyme solution.
Methoxysuccinyl-L-alanyl-L-alanyl-L-prolyl-L-phenylalanyl-paranitroanilide (Funakoshi) as the enzyme substrate was dissolved and adjusted to a concentration of […] with DMSO. This DMSO solution was diluted with twice the volume of the measurement buffer, and then used as the substrate solution.
IC50 against HCG was determined in the same procedure detailed in Test 1.

Assay [1] deals with T2, bovine α-chymotrypsin (CYT) (Bos taurus, UniProt P00766).
T2 construct: purchased Sigma Co. Ltd., St. Louise, MO
Put plainly: Test 2: Measurement of inhibitory activity against CYT. To be noted: MeO-Suc-Ala-Ala-Pro-Phe-pNA substrate, pH 8.0, same procedures as Test 1. The protocol:
as §1, §2, §3
Test 2: Measurement of inhibitory activity against CYT.
0.2M tris-hydrochloride buffer (pH=8.0)
CYT (Sigma Co. Ltd., St. Louise, MO) was adjusted to a concentration of 190 nM with the measurement buffer. This solution was used as the enzyme solution.
Methoxysuccinyl-L-alanyl-L-alanyl-L-prolyl-L-phenylalanyl-paranitroanilide (Funakoshi) as the enzyme substrate was dissolved and adjusted to a concentration of 5 mM with DMSO. This DMSO solution was diluted with twice the volume of measurement buffer, and then used as the substrate solution.
IC50 against CYT was determined in the same procedures detailed in Test 1.

Assay [2] concerns the target T3, human leukocyte elastase (HLE) (Homo sapiens, UniProt P08246).
T3 construct: HLE was purified according to the method described by A. J. Barrett; from tissue; host or cells: purified from natural human material by Barrett's method (Methods in Enzymology 80, 581-588, 1981)
T3 sequence (P08246 30-247 limits assumed): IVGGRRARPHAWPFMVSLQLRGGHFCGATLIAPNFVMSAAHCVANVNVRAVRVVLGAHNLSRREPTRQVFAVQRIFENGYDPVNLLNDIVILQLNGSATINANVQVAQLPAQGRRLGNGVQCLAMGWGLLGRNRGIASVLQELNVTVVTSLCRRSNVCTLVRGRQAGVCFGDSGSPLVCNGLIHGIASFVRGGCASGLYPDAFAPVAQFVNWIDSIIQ
Put plainly: Test 1: Measurement of inhibitory activity against HLE. To be noted: MeO-Suc-Ala-Ala-Pro-Val-pNA substrate, pH 8.6, 37° C., 10 min after mixing enzyme and inhibitor, steady state rate. On the procedure: as §1, §2
0.2M tris-hydrochloride buffer (pH=8.6)
HLE was purified according to the method described by A. J. Barrett ("Methods in Enzymology", Vol. 80, pp. 581 to 588, 1981) and adjusted to a concentration of 190 nM with measurement buffer. This solution was used as the enzyme solution.
Methoxysuccinyl-L-alanyl-L-alanyl-L-prolyl-L-valyl-paranitroanilide (Funakoshi Co. Ltd., Tokyo, Japan) as enzyme substrate was dissolved and adjusted to a concentration of 5 mM with DMSO. This DMSO solution was diluted with twice the volume of measurement buffer, and then used as the substrate solution.
as §3

In patent US5204462A, “4H-3,1-benzoxazin-4-one derivative” (Japan Tobacco, Inc., priority 1990, dated 1993) one finds IC50 data, which are given here for eight compounds.

For orientation: IC50 means the concentration at which inhibition is half-maximal. Take `Cc1cccc2nc([C@@H](NC(=O)[C@@H]3CCCN3C(=O)OCc3ccccc3)C(C)C)oc(=O)c12` [Example 1, (1'S)-2-[1'-(N-benzyloxycarbonyl-L-prolyl)amino-2'-methyl]propyl-5-methyl-4H-3,1-benzoxazin-4-one]: the IC50 was greater than 50 µM at human cathepsin G (HCG), 2.89 µM in assay [1] and 0.28 µM in assay [2].

With `Cc1cccc2nc([C@@H](NC(=O)[C@@H]3CCCN3C(=O)OC(C)(C)C)C(C)C)oc(=O)c12` [Example 2, (1'S)-2-[1'-(N-tert-butyloxycarbonyl-L-prolyl)amino-2'-methyl]propyl-5-methyl-4H-3,1-benzoxazin-4-one], the IC50 on human cathepsin G (HCG) was found to be 26.5 µM; in assay [1] it was 18.3 µM; in assay [2], 2.72 µM.

With `Cc1cccc2nc([C@@H](NC(=O)[C@@H]3CCCN3C(=O)/C=C/c3ccccc3)C(C)C)oc(=O)c12` [Example 3, (1'S)-2-[1'-(N-cinnamoyl-L-prolyl)amino-2'-methyl]propyl-5-methyl-4H-3,1-benzoxazin-4-one], the IC50 was greater than 200 µM against human cathepsin G (HCG), 15.6 µM in assay [1] and 1.31 µM in assay [2].

With `Cc1cccc2nc([C@@H](NC(=O)[C@@H]3CCCN3C(=O)CCc3ccccc3)C(C)C)oc(=O)c12` [Example 4, (1'S)-5-methyl-2-{2'-methyl-1'-[N-(3-phenylpropionyl)-L-prolyl]amino}propyl-4H-3,1-benzoxazin-4-one], the IC50 against human cathepsin G (HCG) was greater than 200 µM; in assay [1] it was 8.69 µM; in assay [2], 0.52 µM.

As for `CCCCCC(=O)N1CCC[C@H]1C(=O)N[C@H](c1nc2cccc(C)c2c(=O)o1)C(C)C` [Example 5, (1'S)-2-[1'-(N-hexanoyl-L-prolyl)amino-2'-methyl]propyl-5-methyl-4H-3,1-benzoxazin-4-one], the IC50 is greater than 140 µM on human cathepsin G (HCG), 11.3 µM in assay [1] and 1.22 µM in assay [2].

For `COC(=O)CCC(=O)N[C@@H](C)C(=O)N[C@@H](C)C(=O)N1CCC[C@H]1C(=O)N[C@H](c1nc2cccc(C)c2c(=O)o1)C(C)C` [Example 6, (1'S)-2-[1'-(methoxysuccinyl-L-alanyl-L-alanyl-L-prolyl)amino-2'-methyl]propyl-5-methyl-4H-3,1-benzoxazin-4-one], the IC50 on human cathepsin G (HCG) was 15 µM; in assay [1] it was 22.1 µM; in assay [2] it was 2.98 µM.

On to `CSCC[C@H](NC(=O)[C@@H]1CCCN1C(=O)OCc1ccccc1)c1nc2cccc(C)c2c(=O)o1` [Example 10, (1'S)-2-[1'-(N-benzyloxycarbonyl-L-prolyl)amino-3'-(methylthio)]propyl-5-methyl-4H-3,1-benzoxazin-4-one], for which the IC50 at human cathepsin G (HCG) is greater than 50 µM; in assay [1] it was 4.51 µM; in assay [2], 0.99 µM.

For the compound `Cc1cccc2nc([C@@H](NC(=O)[C@@H]3C[C@@H](O)CN3C(=O)OCc3ccccc3)C(C)C)oc(=O)c12` [Example 12, (1'S)-2-[1'-(N-benzyloxycarbonyl-trans-4-hydroxy-L-prolyl)amino-2'-methyl]propyl-5-methyl-4H-3,1-benzoxazin-4-one], the IC50 was greater than 200 µM at human cathepsin G (HCG), 10.7 µM in assay [1] and 1.15 µM in assay [2].
